Laboratory results reported in ChEMBL document CHEMBL1201862, “PubChem BioAssay data set” (2004).
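Assay format: 96-well plates, 48-hour exposure. GI50 marks 50% less growth.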 Activity calls are given as the source filed them. Cut-off read from the data, not from the text of the source: active = GI50 up to about 1.1 µM and inactive = higher.

Assays:
Assay in all cases: NCI-60 cell line screen, 48 h
NCI-H460 = test system: NCI-H460
TK-10 = test system: TK-10
SK-OV-3 = test system: SK-OV-3
786-0 = test system: 786-0
HOP-92 = test system: HOP-92
HL-60 = test system: HL-60
IGROV-1 = test system: IGROV-1
UACC-62 = test system: UACC-62
A498 = test system: A498
RPMI-8226 = test system: RPMI-8226
COLO 205 = test system: COLO 205
PC-3 = test system: PC-3
SK-MEL-5 = test system: SK-MEL-5
HT-29 = test system: HT-29
NCI-H522 = test system: NCI-H522
Malme-3M = test system: Malme-3M
A549 = test system: A549
SF-268 = test system: SF-268
T47D = test system: T47D
HOP-62 = test system: HOP-62

Row | Structure (SMILES) | GI50 (NCI-H460) | GI50 (TK-10) | GI50 (SK-OV-3) | GI50 (786-0) | GI50 (HOP-92) | GI50 (HL-60) | GI50 (IGROV-1) | GI50 (UACC-62) | GI50 (A498) | GI50 (RPMI-8226) | GI50 (COLO 205) | GI50 (PC-3) | GI50 (SK-MEL-5) | GI50 (HT-29) | GI50 (NCI-H522) | GI50 (Malme-3M) | GI50 (A549) | GI50 (SF-268) | GI50 (T47D) | GI50 (HOP-62)
1 | COc1ccc2c(c1O)-c1c(OC)c(OC)cc3c1[C@H](C2)[N+](C)(C)CC3 | > 100 µM (inactive) | > 100 µM (inactive) | > 100 µM (inactive) | > 100 µM (inactive) | 13.2 µM (inactive) | > 100 µM (inactive) | > 100 µM (inactive) | > 100 µM (inactive) | > 100 µM (inactive) | > 100 µM (inactive) | > 100 µM (inactive) | > 100 µM (inactive) | > 100 µM (inactive) | > 100 µM (inactive) | > 100 µM (inactive) | > 100 µM (inactive) | > 100 µM (inactive) | > 100 µM (inactive) | > 100 µM (inactive) | –
2 | O=C1/C(=C/c2ccc(O)cc2)CCC1CNc1ccccc1 (stereo unspecified) | 26.3 µM (inactive) | 10.2 µM (inactive) | 22.5 µM (inactive) | 6.9 µM (inactive) | 14.4 µM (inactive) | 1.96 µM (inactive) | 11.3 µM (inactive) | 13.1 µM (inactive) | 17.9 µM (inactive) | 1.15 µM (inactive) | 11.1 µM (inactive) | 11.2 µM (inactive) | 16.8 µM (inactive) | 11.5 µM (inactive) | 2.4 µM (inactive) | 15.3 µM (inactive) | 17.8 µM (inactive) | 14.8 µM (inactive) | 10.3 µM (inactive) | 18.3 µM (inactive)
3 | CC1=C(N2CC2)C(=O)c2nc3n(c2C1=O)CCC3OC(=O)CCl (stereo unspecified) | 0.0183 µM (active) | 0.13 µM (active) | 0.0705 µM (active) | 0.052 µM (active) | 3.3 µM (inactive) | 0.206 µM (active) | 0.19 µM (active) | 0.0356 µM (active) | 0.061 µM (active) | 0.0955 µM (active) | 0.128 µM (active) | 0.0214 µM (active) | 0.0428 µM (active) | 0.0902 µM (active) | 0.0274 µM (active) | 0.0453 µM (active) | 0.0593 µM (active) | 0.0498 µM (active) | 1.11 µM (active) | 0.0532 µM (active)
4 | CCCCC(=O)OCC(=O)[C@]1(O)Cc2c(O)c3c(c(O)c2[C@@H](OC2CC(NC(=O)C(F)(F)F)C(O)C(C)O2)C1)C(=O)c1c(OC)cccc1C3=O (stereo partly specified) | 0.0214 µM (active) | 2.47 µM (inactive) | 0.345 µM (active) | 0.232 µM (active) | 0.376 µM (active) | 0.126 µM (active) | 0.794 µM (active) | 0.184 µM (active) | 0.247 µM (active) | 0.181 µM (active) | 1.11 µM (active) | 1.14 µM (inactive) | 0.327 µM (active) | 0.74 µM (active) | 0.736 µM (active) | 0.711 µM (active) | 0.194 µM (active) | 0.403 µM (active) | 0.54 µM (active) | 0.183 µM (active)
5 | CN(CCc1ccccn1)C(=S)N/N=C/c1ccccn1 | 0.299 µM (active) | 0.043 µM (active) | 0.376 µM (active) | 0.0495 µM (active) | 0.105 µM (active) | < 0.01 µM (active) | 0.0184 µM (active) | 0.195 µM (active) | 0.0194 µM (active) | < 0.01 µM (active) | < 0.01 µM (active) | 0.0456 µM (active) | 0.11 µM (active) | < 0.0473 µM (active) | < 0.01 µM (active) | 0.182 µM (active) | 0.285 µM (active) | 0.248 µM (active) | < 0.01 µM (active) | 0.0336 µM (active)
6 | O=C1c2c(ccc3c2CCCC3)CC12Cc1ccc3c(c1C2=O)CCCC3 | > 100 µM (inactive) | > 100 µM (inactive) | > 100 µM (inactive) | > 100 µM (inactive) | 60.7 µM (inactive) | > 100 µM (inactive) | > 100 µM (inactive) | – | 89.1 µM (inactive) | > 100 µM (inactive) | – | > 100 µM (inactive) | > 100 µM (inactive) | > 100 µM (inactive) | > 100 µM (inactive) | 28.2 µM (inactive) | > 100 µM (inactive) | > 100 µM (inactive) | > 100 µM (inactive) | > 100 µM (inactive)
7 | CO[C@H]1Nc2c(ccc(C)c2O)C(=O)N2C=C(/C=C/C(N)=O)C[C@@H]12 [ANTHRAMYCIN METHYL ETHER] | 0.0322 µM (active) | 0.0585 µM (active) | 0.0405 µM (active) | 0.0163 µM (active) | 0.0258 µM (active) | 0.0436 µM (active) | 0.0358 µM (active) | 0.0151 µM (active) | 0.183 µM (active) | 0.0242 µM (active) | 0.0316 µM (active) | 0.0215 µM (active) | 0.0168 µM (active) | 0.0256 µM (active) | 0.0222 µM (active) | 0.0261 µM (active) | 0.0331 µM (active) | 0.0183 µM (active) | 0.495 µM (active) | 0.0186 µM (active)
8 | CC(O)c1cc2c(s1)C(=O)c1sccc1C2=O (stereo unspecified) | 0.127 µM (active) | 0.213 µM (active) | 1.49 µM (inactive) | 0.303 µM (active) | 0.386 µM (active) | 0.0859 µM (active) | 0.248 µM (active) | 0.0519 µM (active) | 0.29 µM (active) | 0.184 µM (active) | 0.574 µM (active) | 0.289 µM (active) | 0.0164 µM (active) | 0.238 µM (active) | 0.148 µM (active) | 0.0215 µM (active) | 0.155 µM (active) | 0.114 µM (active) | 0.329 µM (active) | 0.163 µM (active)
9 | CN(C)Cc1cc(C(=O)/C=C/c2c(Cl)cccc2Cl)cc(CN(C)C)c1O | 3.72 µM (inactive) | 14.4 µM (inactive) | – | 5.2 µM (inactive) | 3.05 µM (inactive) | 2.07 µM (inactive) | 7.83 µM (inactive) | – | 9.27 µM (inactive) | 4.78 µM (inactive) | 2.96 µM (inactive) | 5.64 µM (inactive) | 3.76 µM (inactive) | 3.07 µM (inactive) | 2.98 µM (inactive) | 3.69 µM (inactive) | 11.5 µM (inactive) | 11.9 µM (inactive) | 16.4 µM (inactive) | 7.85 µM (inactive)
10 | NC(=O)C1CCCNC1 (stereo unspecified) | > 100 µM (inactive) | > 100 µM (inactive) | > 100 µM (inactive) | > 100 µM (inactive) | > 100 µM (inactive) | > 100 µM (inactive) | > 100 µM (inactive) | > 100 µM (inactive) | > 100 µM (inactive) | > 100 µM (inactive) | > 100 µM (inactive) | > 100 µM (inactive) | > 100 µM (inactive) | > 100 µM (inactive) | > 100 µM (inactive) | > 100 µM (inactive) | > 100 µM (inactive) | > 100 µM (inactive) | > 100 µM (inactive) | > 100 µM (inactive)
11 | CC(=O)OC1C[C@@H](C)C2(C[C@H](O)c3ccoc3)C(=O)OC[C@]13C2CCC(O)C31CO1 (stereo partly specified) | > 100 µM (inactive) | > 100 µM (inactive) | – | > 100 µM (inactive) | > 100 µM (inactive) | > 10 µM (inactive) | > 100 µM (inactive) | > 100 µM (inactive) | > 100 µM (inactive) | > 100 µM (inactive) | > 100 µM (inactive) | > 100 µM (inactive) | > 100 µM (inactive) | > 100 µM (inactive) | > 100 µM (inactive) | > 100 µM (inactive) | > 100 µM (inactive) | > 100 µM (inactive) | 1.51 µM (inactive) | > 100 µM (inactive)
12 | COC(=O)C1C(O)C(C)C(=O)C(C)/C=C\C=C(C)C(=O)Nc2c(C)c(OC(C)=O)c3c(c2O)C(=O)C(C)=C2OCOC(=C23)C(C)=CC(C)(O)C(O)C(C)C1O (stereo unspecified) | 32.7 µM (inactive) | – | > 100 µM (inactive) | 54.6 µM (inactive) | 50.5 µM (inactive) | 18.6 µM (inactive) | 21.7 µM (inactive) | 21.7 µM (inactive) | 24.9 µM (inactive) | > 100 µM (inactive) | 25.1 µM (inactive) | 25.1 µM (inactive) | 14.5 µM (inactive) | 29.9 µM (inactive) | 43.5 µM (inactive) | 22.2 µM (inactive) | 20.2 µM (inactive) | 99.8 µM (inactive) | 33.3 µM (inactive) | > 100 µM (inactive)
13 | CC1CC(=O)N(N(C)C)C(C#N)(C#N)C1(C#N)C#N (stereo unspecified) | – | 16 µM (inactive) | 29.5 µM (inactive) | 12.2 µM (inactive) | 7.6 µM (inactive) | 0.653 µM (active) | 20.2 µM (inactive) | 18.3 µM (inactive) | 17.8 µM (inactive) | 4.14 µM (inactive) | 3 µM (inactive) | 18.4 µM (inactive) | 21.9 µM (inactive) | 17.2 µM (inactive) | 2.77 µM (inactive) | 12.2 µM (inactive) | 24.8 µM (inactive) | 35.8 µM (inactive) | 15.5 µM (inactive) | 26.1 µM (inactive)
14 | COC(=O)CCC(C)[C@H]1CCC2C3C(C[C@H](OC(C)=O)[C@@]21C)[C@@]1(C)CCC2(C[C@H]1C[C@H]3OC(C)=O)OOC1(CCCCC1)OO2 (stereo partly specified) | 10.8 µM (inactive) | > 100 µM (inactive) | 54.5 µM (inactive) | 15.1 µM (inactive) | 1.02 µM (active) | 7.26 µM (inactive) | 5.2 µM (inactive) | – | > 100 µM (inactive) | 1.99 µM (inactive) | 24.7 µM (inactive) | 5.97 µM (inactive) | 19.4 µM (inactive) | 41.9 µM (inactive) | 9.33 µM (inactive) | 36.4 µM (inactive) | 11.3 µM (inactive) | 25 µM (inactive) | 65.9 µM (inactive) | 2.99 µM (inactive)
